The values that follow come from US20240270821A1, “GIP/GLP1/GCG TRI-RECEPTOR AGONISTS AND USES THEREOF” (priority 2023, published 2024).

Read-outs that look alike come from different tables or passages of the source. Marks after values point to notes of the source that are not given here. Starred links: 1 amine or outer side, 2 acyl side, 3 side chain; linkers in the order of their positions; H or OH if unused. Non-standard residues stand in square brackets, D forms with d. Residues, ends and D or L forms follow the SMILES beside them. Groups on a side chain read outwards from the residue. No end group written: not given here. *: point of attachment. C18 diacid = O=C(O)CCCCCCCCCCCCCCCCC(=O)*; αMePhe(2-F) = C[C@](N)(Cc1ccccc1F)C(=O)O; γGlu = O=C(O)[C@H](CCC(=O)[*:2])N[*:1]; αMe4Pal = C[C@](N)(Cc1ccncc1)C(=O)O; αMeY = C[C@](N)(Cc1ccc(O)cc1)C(=O)O; 4Pal = N[C@@H](Cc1ccncc1)C(=O)O; αMeL = CC(C)C[C@](C)(N)C(=O)O; αMeS = C[C@](N)(CO)C(=O)O; Orn = NCCC[C@H](N)C(=O)O; AEEA = NCCOCCOCC(=O)O; Aib = CC(C)(N)C(=O)O

The target of data set [1] is T1, hGIPR (Homo sapiens, UniProt P48546).
T1 sequence (P48546 22-466): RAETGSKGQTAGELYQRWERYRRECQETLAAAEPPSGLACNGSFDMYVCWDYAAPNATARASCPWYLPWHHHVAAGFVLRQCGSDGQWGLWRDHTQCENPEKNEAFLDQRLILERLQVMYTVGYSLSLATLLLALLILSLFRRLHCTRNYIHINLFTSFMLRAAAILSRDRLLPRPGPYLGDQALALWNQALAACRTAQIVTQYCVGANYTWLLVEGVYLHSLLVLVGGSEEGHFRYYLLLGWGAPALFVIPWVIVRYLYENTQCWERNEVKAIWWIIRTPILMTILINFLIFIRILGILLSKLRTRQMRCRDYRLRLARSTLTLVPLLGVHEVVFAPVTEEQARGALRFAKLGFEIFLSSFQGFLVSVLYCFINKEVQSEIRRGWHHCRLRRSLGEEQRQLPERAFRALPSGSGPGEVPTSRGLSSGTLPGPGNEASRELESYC
Kind of data set: Functional cAMP activation in the presence of 0.1% casein (no HSA). The class given is cell-based. The settings on record: read-out: Relative cAMP EC50, hGIPR.

The target in data set [2] is T2, hGLP-1R (Homo sapiens, UniProt P43220). Kind of data set: Functional cAMP activity in the presence of 1% HSA. The settings on record: read-out: cAMP Rel EC50, hGLP-1R. The class given is cell-based.
T2 sequence (P43220 24-463): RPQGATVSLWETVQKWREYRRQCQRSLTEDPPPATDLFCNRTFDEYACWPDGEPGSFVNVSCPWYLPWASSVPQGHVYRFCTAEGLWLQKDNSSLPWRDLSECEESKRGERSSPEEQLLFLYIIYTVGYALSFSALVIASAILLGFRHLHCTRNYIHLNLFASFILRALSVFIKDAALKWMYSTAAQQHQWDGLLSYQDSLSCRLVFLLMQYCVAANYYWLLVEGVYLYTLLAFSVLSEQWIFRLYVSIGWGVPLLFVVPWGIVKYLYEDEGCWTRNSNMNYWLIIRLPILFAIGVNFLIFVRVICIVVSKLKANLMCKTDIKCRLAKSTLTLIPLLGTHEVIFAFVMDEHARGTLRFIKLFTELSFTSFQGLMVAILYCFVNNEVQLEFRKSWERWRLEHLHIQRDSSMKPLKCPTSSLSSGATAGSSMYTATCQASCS
The next data set has as its target hGcgR (Homo sapiens, UniProt P47871). Kind of data set: Functional cAMP activation in the presence of 0.1% casein (no HSA). Type of data set: cell-based. The settings on record: read-out: Relative cAMP EC50, hGcgR.
Data set [3] addresses T1, hGIPR. Kind of data set: Functional cAMP activity in the presence of 1% HSA. The settings on record: read-out: cAMP Rel EC50, hGIPR. Type of data set: cell-based.
A short description of another data set: in vivo. The settings on record: male, Sprague Dawley, rat, 4 mg/kg. Set-up: species or system Sprague Dawley rats.
The target of data set [4] is T2, hGLP-1R. Kind of data set: Functional cAMP activation in the presence of 0.1% casein (no HSA). The class given is cell-based. The conditions noted are these: read-out: Relative cAMP EC50, hGLP-1R.
A further data set addresses human GcgR (Homo sapiens, UniProt P47871). Kind of data set: Functional cAMP activity in the presence of 1% HSA. The class given is cell-based. The conditions noted are these: read-out: cAMP Rel EC50, hGcgR.
A short description of data set [5]: Body weight in diet-induced obese C57BL/6 mice. The class given is in vivo. The settings on record: 10 nmol/kg SC QD, percent of starting weight, DIO mice, mean ± SEM n=5. The method, boiled down:
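Male C57BL/6 DIO mice (41-50 g, 5 per group, randomized by weight) on calorie-rich diet received subcutaneous doses 30-90 min before dark onset, QD or Q3D for 9-16 days. Body weight measured daily, expressed as percent of starting weight, mean±SEM.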

Setting [6] is: in the presence of 0.1% casein (no HSA), geometric mean.
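For Relative cAMP EC50, hGIPR in this document: intracellular cAMP rise after 30 min at 37 °C read by HTRF against a standard curve, scaled between buffer alone (0%) and top control ligand concentration (100%), four-parameter fit.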
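For Relative cAMP EC50, hGLP-1R in this document: intracellular cAMP rise after 30 min at 37 °C read by HTRF, normalized between buffer only (0%) and maximal control ligand (100%), four-parameter variable-slope fit.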
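For Relative cAMP EC50, hGcgR in this document: intracellular cAMP rise after 30 min at 37 °C, read by HTRF against a cAMP standard curve, scaled from buffer only (0%) to maximal control ligand response (100%).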

human GcgR, sequence (P47871 26-477): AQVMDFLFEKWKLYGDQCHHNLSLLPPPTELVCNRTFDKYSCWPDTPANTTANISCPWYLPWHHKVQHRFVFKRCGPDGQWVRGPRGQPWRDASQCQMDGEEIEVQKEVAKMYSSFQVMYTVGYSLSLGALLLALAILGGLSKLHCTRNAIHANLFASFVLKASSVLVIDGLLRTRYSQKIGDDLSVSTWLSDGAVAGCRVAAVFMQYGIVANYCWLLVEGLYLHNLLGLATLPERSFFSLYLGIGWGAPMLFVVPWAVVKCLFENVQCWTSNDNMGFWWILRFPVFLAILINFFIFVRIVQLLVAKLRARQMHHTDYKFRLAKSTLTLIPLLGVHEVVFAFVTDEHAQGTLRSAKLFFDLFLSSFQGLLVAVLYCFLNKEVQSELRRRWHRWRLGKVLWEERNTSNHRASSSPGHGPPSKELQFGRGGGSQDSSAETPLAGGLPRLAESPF
hGcgR, sequence (P47871 26-477): as above
Experimental for in vivo: The pharmacokinetics of the exemplary analogs are evaluated following a single subcutaneous (SC) administration of 10 nmol/kg (dissolved in 40 mM Tris pH8) or single 4 mg/kg (mixed with 250 mM sodium decanoate/C10 in 40 mM Tris pH8) intrajejunal (IJ) administration to male Sprague Dawley rats. Blood samples are collected over 96 hours following SC administration and 72 hours following IJ dosing, and resulting individual plasma concentrations are used to calculate pharmacokinetic parameters. Peptide plasma (K3 EDTA) concentrations are determined using a qualified LC/MS method that measured the intact mass of the analog. Each peptide and an analog as an internal standard are extracted from rat plasma using methanol. A High Resolution Instrument was used for LC/MS detection.

One may read the EC50 as the midpoint of the concentration-response curve. A word on the CL/F: it is the apparent clearance, not corrected for the fraction that reaches the circulation. What is called half-life is the time in which the quantity being followed falls by half. The low end stands for rapid decline, the high end for slow decline. For “H-Y[Aib]QGT[αMePhe(2-F)]TSD[4Pal][αMeS]I[αMeL]LD[Orn]K([AEEA-γGlu-C18 diacid])AQ[Aib][Orn]FI[dE][αMeY]LIEGGPSSGEPPPEEG-NH2 [Example 462]”, the EC50 on hGIPR [1] was 0.0148 nM; on hGLP-1R [2], 12.9 nM; on hGcgR it was 1.69 nM; at hGIPR [3] it was 1.62 nM; on hGLP-1R [4], 0.204 nM; on human GcgR it was 183 nM. This molecule gave a CL/F in the data set “in vivo” of 0.6 L/h/kg. This molecule gave a half-life in “in vivo” of 11 h. Further, in data set [5] (9 days), the “Body weight (%)” value worked out at 73.68 ± 2.82 %.

Consider “H-Y[Aib]QGT[αMePhe(2-F)]TSD[4Pal]SI[αMeL]LD[Orn]K([AEEA-γGlu-C18 diacid])AQ[αMe4Pal][Orn]FI[dE][αMeY]LIEGGPSSGEPPPEEG-NH2 [Example 475]”, for which the EC50 at hGIPR [1] was 0.0173 nM; on hGLP-1R [2] it was 18.6 nM; on hGcgR, 2.24 nM; at hGIPR [3], 1.85 nM; at hGLP-1R [4] it was 0.254 nM; at human GcgR, 254 nM. The CL/F in “in vivo” is 0.21 L/h/kg. The molecule also showed a half-life in the data set “in vivo” of 13.7 h. In data set [5] (9 days), the “Body weight (%)” value was determined as 69.34 ± 2.99 %.

Take `CC[C@H](C)[C@H](NC(=O)[C@H](Cc1ccccc1)NC(=O)[C@H](CCCN)NC(=O)C(C)(C)NC(=O)[C@H](CCC(N)=O)NC(=O)[C@H](C)NC(=O)[C@H](CCCCNC(=O)COCCOCCNC(=O)CC[C@H](NC(=O)CCCCCCCCCCCCCCCCC(=O)O)C(=O)O)NC(=O)[C@H](CCCN)NC(=O)[C@H](CC(=O)O)NC(=O)[C@H](CC(C)C)NC(=O)[C@](C)(CC(C)C)NC(=O)[C@@H](NC(=O)[C@](C)(CO)NC(=O)[C@H](Cc1ccc(O)cc1)NC(=O)[C@H](CC(=O)O)NC(=O)[C@H](CO)NC(=O)[C@@H](NC(=O)[C@](C)(Cc1ccccc1F)NC(=O)[C@@H](NC(=O)CNC(=O)[C@H](CCC(N)=O)NC(=O)C(C)(C)NC(=O)[C@@H](N)Cc1ccc(O)cc1)[C@@H](C)O)[C@@H](C)O)[C@@H](C)CC)C(=O)N[C@H](CCC(=O)O)C(=O)N[C@@](C)(Cc1ccc(O)cc1)C(=O)N[C@@H](CC(C)C)C(=O)N[C@@H](CC(C)C)C(=O)N[C@@H](CCC(=O)O)C(=O)NCC(=O)NCC(=O)N1CCC[C@H]1C(=O)N[C@@H](CO)C(=O)N[C@@H](CO)C(=O)NCC(=O)N[C@@H](CCC(=O)O)C(=O)N1CCC[C@H]1C(=O)N1CCC[C@H]1C(=O)N1CCC[C@H]1C(=O)N[C@@H](CO)C(N)=O` [Example 368] (H-Y[Aib]QGT[αMePhe(2-F)]TSDY[αMeS]I[αMeL]LD[Orn]K([AEEA-γGlu-C18 diacid])AQ[Aib][Orn]FI[dE][αMeY]LLEGGPSSGEPPPS-NH2): the EC50 at hGIPR [1] (setting [6]) worked out at 0.0121 nM; at hGLP-1R [2] it was 37.4 nM; on hGcgR (setting [6]), 0.481 nM; on hGIPR [3], 2.62 nM; on hGLP-1R [4] (setting [6]) it was 0.242 nM; at human GcgR, 111 nM. In “in vivo”, this molecule gave a CL/F of 0.44 L/h/kg. This molecule had a half-life in “in vivo” of 9.6 h. For the same molecule, the “Body weight (%)” value in data set [5] (14 days) was 52.52 +/− 2.49**** %.

As to “H-Y[Aib]QGT[αMePhe(2-F)]TSD[4Pal][αMeS]I[αMeL]LD[Orn]K([AEEA-AEEA-γGlu-C18 diacid])AQ[Aib][Orn]FI[dE][αMeY]LIEGGPSSGAPEPSEG-NH2 [Example 472]”, the EC50 on hGIPR [1] came out at 0.015 nM; at hGLP-1R [2], 7.88 nM; on hGcgR, 2.73 nM; at hGIPR [3], 0.927 nM; at hGLP-1R [4], 0.171 nM; on human GcgR it was 229 nM. The molecule also had a CL/F in “in vivo” of 0.44 L/h/kg. This molecule also showed a half-life in the data set “in vivo” of 9.4 h. Further, the “Body weight (%)” value in data set [5] (9 days) stood at 76.13 ± 2.28 %.

Turning to “Y[Aib]QGT[αMePhe(2-F)]TSD[4Pal][αMeS]I[αMeL]LD[Orn]K([AEEA-γGlu-C18 diacid])AQ[Aib][Orn]FI[dE]YLIEGGPSSGEPPPSEG-NH2 [Example 463]”, the EC50 at hGIPR [1] was found to be 0.0558 nM; at hGLP-1R [2], 24.7 nM; at hGcgR, 4.27 nM; at hGIPR [3] it was 6.36 nM; on hGLP-1R [4] it was 0.362 nM; on human GcgR, 496 nM. Besides, the CL/F in the data set “in vivo” is 0.97 L/h/kg. In “in vivo”, this molecule had a half-life of 8.3 h. Moreover, in data set [5] (9 days), the “Body weight (%)” value amounted to 83.31 ± 2.10 %.
